The values that follow come from US7038085B2, “Stereoisomers of p-hydroxy-milnacipran, and methods of use thereof” (Collegium Pharmaceutical, Inc., priority 2002, dated 2006).

Series [1] has as its target T1, Norepinephrine Transporter (NET) (Homo sapiens, UniProt P23975). Nature of the series: Transporter, Norepinephrine (NET) radioligand binding (cat. 204410). As to conditions: for Ki: human recombinant MDCK cells, [125I] RTI-55, Ki by Cheng and Prusoff, read-out: Ki, displacement of radioligand from Norepinephrine Transporter binding sites. Here is the method: (§1) The methods employed in this study have been adapted from the scientific literature to maximize reliability and reproducibility. Reference standards were run as an integral part of each assay to ensure the validity of the results obtained. Assays were performed under conditions as described below. Literature reference(s) for each assay are tabulated below and hereby incorporated by reference.
(§2) Where presented, IC50 values were determined by a non-linear, least squares regression analysis using Data Analysis ToolboX™ (MDL Information Systems, San Leandro, Calif., USA). Where inhibition constants (Ki) are presented, the Ki values were calculated using the equation of Cheng and Prusoff(Cheng, Y., Prusoff, W. H., Biochem. Pharmacol. 22:30993108, 1973) using the observed IC50 of the tested compound, the concentration of radioligand employed in the assay, and the historical values for the Kd of the ligand (obtained experimentally at MDS Pharma Services). Where presented, the Hill coefficient (nH), defining the slope of the competitive binding curve, was calculated using Data Analysis Toolbox™. […] Where IC50, Ki, and/or nH data are presented without Standard Error of the Mean (SEM), data are insufficient to be quantitative, and the values presented (Ki, IC50, nH) should be interpreted with caution.
(§3) Where presented, IC50 values were determined by a non-linear, least squares regression analysis using Data Analysis Toolbox™ (MDL Information Systems, San Leandro, Calif., USA). Where inhibition constants (Ki) are presented, the Ki values were calculated using the equation of Cheng and Prusoff (Cheng, Y., Prusoff, W. H., Biochem. Pharmacol. 22:3099–3108, 1973) using the observed IC50 of the tested compound, the concentration of radioligand employed in the assay, and the historical values for the KD of the ligand (obtained experimentally at MDS Pharma Sarvices.

The next series concerns other receptors. Description: Radioligand binding assay panel, other receptors (FIGS. 32 and 33). As to conditions: radioligand binding assays at 10 μM. Details: species or system human, mouse, guinea pig, syrian hamster, rat. How it is done:
as §1

The target of another series is Norepinephrine Uptake (Homo sapiens, UniProt P23975). Description: Inhibition of cellular Norepinephrine Uptake (cat. 302000). Format: cell-based. As to conditions: for IC50: cellular uptake, FIG. 61. How it is done: (§4) The methods employed have been adapted from the scientific literature to maximize reliability and reproducibility. Reference standards were run as an integral part of each assay to ensure the validity of the results obtained. Assays were performed under the conditions described below. The literature reference(s) for each assay are are listed below.
as §3

Series [2] deals with T2, Serotonin Transporter (SERT) (Homo sapiens, UniProt P31645). Description: Transporter, Serotonin (5-Hydroxytryptamine) (SERT) radioligand binding (cat. 274020). Particulars: for Ki: human recombinant HEK-293 cells, [125I] RTI-55, Ki by Cheng and Prusoff, read-out: Ki, displacement of radioligand from Serotonin Transporter binding sites. How it is done: as §1, §2, §3
A further series has as its target Serotonin Uptake (Homo sapiens, UniProt P31645). Nature of the series: Inhibition of cellular Serotonin Uptake (cat. 364000). The format is cell-based. As to conditions: for IC50: cellular uptake, FIG. 61. How it is done: as §4, §3
A short description of series [3]: Cytotoxicity, fluorometric assay run with the uptake assays (cat. 302100, 364100). The format is cell-based. Particulars: at 10 μM. An excerpt:
• 118090. Crespi, C. L., Miller, V. P and Penman, B. W. (1997) Microtiter plate assays for inhibition of human, drug-metabolizing cytochromes P450. Anal Biochem 248(1): 188–190. • Gentest Technical Bulletin (Version 4.2: Revised 27 Sep. 2000) A high throughput method for measuring cytochrome P450 inhibition. Gentest Technical Bulletin (Version 4.2) Revised 27 Sep. 2000). • 204410. Galli, A., DeFelice, L., Duke, B.-J., Moore, K. Blakely, R. (1995) Sodium dependent norepinephrine induced currents in norephinephrine transporter transfected HEK293 cells blocked by cocaine and antidepressants. J. Exp. Biol. 198:2197–2212. • 212610. Eggerickx, D., Raspe, E. Bertrand, D., Vassart, G., Parmentier, M. (1992) Molecular cloning, functional expression and pharmacological characterization of a human bradykinin B2 receptor gene. Biochem Biophys Res Commun 187 (3): 1306–1313. • 214510. Schoemaker, H. and Langer, S. Z. (1985) [3H]Diltiazem binding to calcium channel antagonist recognition sites in rat cerebral cortex. Eur. J. Pharmacol. 111:273–277. • 274020. […] J. Biol. Chem. 269(10):7124–7130. • 302000. Galli, A., DeFelice, L. Duke, B.-J., and Blakely, R. (1995) Sodium dependent norephinephrine-induced currents in norepinephrine-transporter-transfected HEK-293 cells blocked by cocaine and antidepressants. J. Exp. Biol. 198:2197–2212. • 302100. Page, B., Page, M. and Noel, C. (1993) A new fluorometric assay for cytotoxicity measurements in vitro. […] 3:473–476, 1993. • 364000. […] J. Biol. Chem. […]:7124–7130. • 364100. Page, B., Page, M. and Noel, C. (1993) A new fluorometric assay for cytotoxicity measurements in vitro. Int. J. Oncology 3:473–476, 1993.

A further series has as its system beta adrenoceptors. Particulars: after chronic administration; Briley et al. 1996; cited from earlier work.
A further series addresses uptake of dopamine (Homo sapiens, UniProt Q01959). As to conditions: cited from earlier work.
The test system of series [4] is alpha or beta adrenergic, muscarinic, histaminergic, and dopaminergic receptors. As to conditions: cited from earlier work.
Series [5] deals with norepinephrine (NE) and serotonin (5-HT) uptake. Particulars: Viazzo et al. 1996; Deprez et al. 1998; cited from earlier work.
Series [6] addresses T2, Serotonin Transporter (SERT). As to conditions: radioligand [125I] RTI-55; Human recombinant HEK-293 cells; historical value (*); cited from earlier work.
The target of series [7] is T1, Norepinephrine Transporter (NET). As to conditions: radioligand [125I] RTI-55; Human recombinant MDCK cells; historical value (*); cited from earlier work.

T1 sequence (P23975 whole entry): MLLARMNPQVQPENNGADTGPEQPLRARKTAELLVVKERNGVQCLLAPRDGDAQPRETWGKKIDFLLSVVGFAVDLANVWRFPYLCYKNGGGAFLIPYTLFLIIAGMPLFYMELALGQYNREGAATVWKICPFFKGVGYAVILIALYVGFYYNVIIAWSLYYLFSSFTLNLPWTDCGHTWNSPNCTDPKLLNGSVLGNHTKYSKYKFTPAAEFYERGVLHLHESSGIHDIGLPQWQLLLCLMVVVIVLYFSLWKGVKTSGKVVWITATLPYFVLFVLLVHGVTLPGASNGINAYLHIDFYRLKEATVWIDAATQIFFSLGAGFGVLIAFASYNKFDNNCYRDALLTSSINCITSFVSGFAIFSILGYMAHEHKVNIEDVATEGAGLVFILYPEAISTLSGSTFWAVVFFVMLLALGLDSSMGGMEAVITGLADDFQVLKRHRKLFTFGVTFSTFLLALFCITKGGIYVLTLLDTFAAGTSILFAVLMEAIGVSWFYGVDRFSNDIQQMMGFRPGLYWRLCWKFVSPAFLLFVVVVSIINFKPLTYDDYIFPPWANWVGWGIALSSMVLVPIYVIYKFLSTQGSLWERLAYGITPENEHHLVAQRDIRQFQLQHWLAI
Chain of Norepinephrine Uptake (P23975 whole entry): as above
T2 sequence (P31645 whole entry): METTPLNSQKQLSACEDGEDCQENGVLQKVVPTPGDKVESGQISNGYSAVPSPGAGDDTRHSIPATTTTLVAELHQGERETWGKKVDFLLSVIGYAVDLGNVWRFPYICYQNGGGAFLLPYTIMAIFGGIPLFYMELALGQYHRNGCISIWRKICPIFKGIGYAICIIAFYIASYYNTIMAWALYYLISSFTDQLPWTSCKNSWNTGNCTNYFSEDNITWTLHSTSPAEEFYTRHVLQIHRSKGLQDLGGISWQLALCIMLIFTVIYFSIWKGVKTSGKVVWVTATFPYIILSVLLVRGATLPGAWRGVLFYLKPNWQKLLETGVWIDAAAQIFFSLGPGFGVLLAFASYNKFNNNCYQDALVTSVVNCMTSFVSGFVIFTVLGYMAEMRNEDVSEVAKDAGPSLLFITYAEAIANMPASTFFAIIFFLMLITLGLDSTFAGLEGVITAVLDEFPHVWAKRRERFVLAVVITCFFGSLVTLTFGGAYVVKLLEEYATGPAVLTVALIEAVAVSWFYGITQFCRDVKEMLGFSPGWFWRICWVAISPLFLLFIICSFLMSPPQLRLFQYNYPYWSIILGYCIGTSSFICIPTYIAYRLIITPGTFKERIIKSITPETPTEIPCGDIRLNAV
Chain of Serotonin Uptake (P31645 whole entry): as above
Chain of uptake of dopamine (Q01959 whole entry): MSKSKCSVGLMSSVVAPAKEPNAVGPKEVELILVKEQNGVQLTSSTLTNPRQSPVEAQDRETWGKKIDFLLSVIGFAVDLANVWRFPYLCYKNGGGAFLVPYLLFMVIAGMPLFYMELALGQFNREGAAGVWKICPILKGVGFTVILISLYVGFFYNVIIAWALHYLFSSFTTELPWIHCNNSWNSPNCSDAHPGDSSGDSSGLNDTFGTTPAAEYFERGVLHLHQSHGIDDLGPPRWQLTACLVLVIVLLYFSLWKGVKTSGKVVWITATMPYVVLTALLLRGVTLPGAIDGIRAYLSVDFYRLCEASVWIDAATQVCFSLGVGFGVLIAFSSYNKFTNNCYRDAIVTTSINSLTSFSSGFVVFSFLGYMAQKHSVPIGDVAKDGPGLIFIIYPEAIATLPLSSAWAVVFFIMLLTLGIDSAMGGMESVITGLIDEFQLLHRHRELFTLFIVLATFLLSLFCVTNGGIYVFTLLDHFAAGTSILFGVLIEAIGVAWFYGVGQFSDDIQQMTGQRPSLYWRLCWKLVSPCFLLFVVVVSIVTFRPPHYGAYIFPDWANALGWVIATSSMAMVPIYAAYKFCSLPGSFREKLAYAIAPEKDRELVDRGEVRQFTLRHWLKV

What is called Ki is a dissociation constant, usually derived from enzyme kinetics or from competition with a known ligand. One may read the IC50 as the midpoint of a concentration-inhibition curve. As to `CCN(CC)C(=O)C1(c2ccc(O)cc2)CC1CN` (racemic) [CS1814, racemic 2-Aminomethyl-1-(4-hydroxy-phenyl)-cyclopropanecarboxylic acid diethyl amide], the Ki in series [1] was 0.218 µM; in series [2], 0.00673 µM. Also, the concentration for half-maximal inhibition (IC50) in series [1] (radioligand binding, FIG. 59, read-out: IC50 for inhibition of norepinephrine transporter) was 0.22 µM; against Norepinephrine Uptake, 0.0286 µM; in series [2] (radioligand binding, FIG. 59, read-out: IC50 for inhibition of serotonin transporter), 0.0127 µM; at Serotonin Uptake, 0.0217 µM. Further, the “binding to other receptors” value in the series with other receptors is “generally does not bind well to other receptors”. In addition, on Norepinephrine Uptake, the “potency of inhibition of norepinephrine uptake compared to inhibition of serotonin uptake” value is listed as “approximately equal potency”. Also, the cytotoxicity entry in series [3] was “no cytotoxicity was observed”.

On to `CCN(CC)C(=O)[C@@]1(c2ccccc2)C[C@H]1CN` (racemic) [Milnacipran, milnacipran], for which the “effect on the number of beta adrenoceptors in rat cortex” value with beta adrenoceptors is “does not affect the number of beta adrenoceptors”. At uptake of dopamine, the “effect on the uptake of dopamine” value is “does not affect the uptake of dopamine”. In series [4], the “affinity for alpha or beta adrenergic, muscarinic, histaminergic, and dopaminergic receptors” value is given as “no affinity”.

Turning to `CCN(CC)C(=O)[C@@]1(c2ccc(O)cc2)C[C@H]1CN` [CS1713, 1S, 2R 2-Aminomethyl-1-(4-hydroxy-phenyl)-cyclopropanecarboxylic acid diethyl amide], the inhibition constant (Ki) in series [1] amounted to 0.112 µM; in [2], 0.00388 µM. Moreover, the “potency of inhibition of norepinephrine uptake compared to inhibition of serotonin uptake” value on Norepinephrine Uptake was “approximately two-fold”. The IC50 against Norepinephrine Uptake amounted to 0.0103 µM; on Serotonin Uptake, 0.022 µM. For the same compound, in [3], the cytotoxicity entry is reported as “no cytotoxicity was observed”.

As for `CCN(CC)C(=O)[C@]1(c2ccc(O)cc2)C[C@@H]1CN.Cl` [CS1714, 1R, 2S 2-Aminomethyl-1-(4-hydroxy-phenyl)-cyclopropanecarboxylic acid diethyl amide], the Ki is 1.68 µM in [1] and 0.00815 µM in [2]. In addition, the values for the IC50 at Norepinephrine Uptake and on Serotonin Uptake were 0.0885 µM and 0.0403 µM, respectively. The “potency of inhibition of serotonin uptake compared to inhibition of norepinephrine uptake” value at Serotonin Uptake is “approximately two-fold”. In addition, the cytotoxicity result in [3] is “no cytotoxicity was observed”.

Regarding `CCN(CC)C(=O)[C@@]1(c2ccccc2)C[C@H]1CN` [F2695, (+)-1S,2R-milnacipran], the “activity in inhibiting norepinephrine and serotonin reuptake compared with the racemic mixture” value in series [5] is “roughly twice”.

For `CCN(CC)C(=O)[C@]1(c2ccccc2)C[C@@H]1CN` [F2696, (−)-1R,2S-milnacipran], the “activity in inhibiting norepinephrine and serotonin reuptake compared with the racemic mixture” value in series [5] is on record as “much less potent”.

The term Kd denotes a measure of binding affinity in units of concentration. For the compound `COC(=O)[C@H]1[C@@H](c2ccc(I)cc2)C[C@@H]2CC[C@H]1N2C` [[^125I] RTI-55], the Kd in [6] is 0.00017 µM; in series [7], 0.024 µM.
